In US7244722B2, “Amino-substituted 1H-pyrazin-2-ones and 1H-quinoxalin-2-ones” (Biovitrum AB, priority 2002, dated 2007):
Where a name gives a salt, the structure may show the parent alone.

tested on: not given; test: not given; details: not given

Row | SMILES | melting point
1 | CC(c1ccccc1)N1CCN(c2nccn(CCOc3cc(F)c(F)cc3F)c2=O)CC1 (racemic) (as salt: hydrochloride) [Example 60, 3-[4-(1-Phenylethyl)piperazin-1-yl]-1-[2-(2,4,5-trifluorophenoxy)ethyl]pyrazin-2(1H)-one] | 137 to 139 °C
2 | O=c1c(N2CCNCC2)nccn1CCOc1c(F)c(F)cc(F)c1F (as salt: hydrochloride) [Example 4, 3-(1-Piperazinyl)-1-[2-(2,3,5,6-tetrafluorophenoxy)ethyl]-2(1H)-pyrazinone] | 196 to 198 °C (dec.)
3 | O=C(c1ccccc1)c1cccc(OCCn2ccnc(N3CCNCC3)c2=O)c1 [Example 24, 1-[2-(3-Benzoylphenoxy)ethyl]-3-(1-piperazinyl)-2(1H)-pyrazinone] | 69 to 70 °C
4 | O=c1c(N2CCN(Cc3ccccc3)CC2)nccn1CCOc1cc(F)c(F)cc1F (as salt: hydrochloride) [Example 63, 3-(4-Benzylpiperazin-1-yl)-1-[2-(2,4,5-trifluorophenoxy)ethyl]pyrazin-2(1H)-one] | 214 to 214.5 °C
5 | N#Cc1cccc(OCCn2ccnc(N3CCNCC3)c2=O)c1 [Example 7, 1-[2-(3-Cyanophenoxy)ethyl]-3-(1-piperazinyl)-2(1H)-pyrazinone] | 49 to 52 °C
6 | O=c1c(N2CCNCC2)nccn1CCOc1cccc([N+](=O)[O-])c1 [Example 23, 1-[2-(3-Nitrophenoxy)ethyl]-3-(1-piperazinyl)-2(1H)-pyrazinone] | 171 °C
7 | O=c1c(N2CCNCC2)nccn1CCCCOc1cc(F)c(F)cc1F (as salt: trifluoroacetate) [Example 58, 1-[4-(2,4,5-Trifluorophenoxy)butyl]-3-(1-piperazinyl)-2(1H)-pyrazinone] | 113.4 to 116.6 °C (dec.)
8 | O=c1c(N2CCNCC2)nccn1CCOc1cc(F)cc(F)c1 [Example 25, 1-[2-(3,5-Difluorophenoxy)ethyl]-3-(1-piperazinyl)-2(1H)-pyrazinone] | 119 to 121 °C
9 | O=c1c(N2CCNCC2)nccn1CCOc1noc2ccccc12 (as salt: hydrochloride) [Example 9, 1-[2-(1,2-Benzisoxazol-3-yloxy)ethyl]-3-(1-piperazinyl)-2(1H)-pyrazinone] | 174 to 176 °C
10 | O=c1c(N2CCNCC2)nccn1CCOc1ccc([N+](=O)[O-])cc1F (as salt: hydrochloride) [Example 1, 1-[2-(2-Fluoro-4-nitrophenoxy)ethyl]-3-(1-piperazinyl)-2(1H)-pyrazinone] | 105 to 108 °C
11 | O=c1c(N2CCNCC2)nccn1CCCOc1cc(F)c(F)cc1F (as salt: trifluoroacetate) [Example 59, 1-[3-(2,4,5-Trifluorophenoxy)propyl]-3-(1-piperazinyl)-2(1H)-pyrazinone] | 100.3 to 100.9 °C (dec.)
12 | C=CCc1ccc(OCCn2ccnc(N3CCNCC3)c2=O)c(OC)c1 (as salt: maleate) [Example 65, 1-[2-(4-Allyl-2-methoxyphenoxy)ethyl]-3-piperazin-1-ylpyrazin-2(1H)-one] | 158 to 160 °C
13 | CN(C)c1cccc(OCCn2ccnc(N3CCNCC3)c2=O)c1 (as salt: fumarate) [Example 20, 1-{2-[3-(N,N-Dimethylamino)phenoxy]ethyl}-3-(1-piperazinyl)-pyrazin-2(1H)-one] | 180 to 191 °C
14 | O=c1c(N2CCNCC2)nccn1CCOc1cc(F)c(F)cc1F (as salt: hydrochloride) [Example 3, 3-(1-Piperazinyl)-1-[2-(2,4,5-trifluorophenoxy)ethyl]-2(1H)-pyrazinone] | 193 to 195 °C

biological target: T1, human 5-HT2A receptor (Homo sapiens, UniProt P28223); test: 5-HT2A receptor affinity assay: competition with 3H-labeled LSD on membranes of transfected CHO cells; details: displacement of 3H-LSD; membranes from transfected CHO cell line stably expressing the human 5-HT2A receptor; non-specific binding defined with mianserin (5 μM)
T1 construct: expressed in transfected cells
T1 sequence (P28223 whole entry): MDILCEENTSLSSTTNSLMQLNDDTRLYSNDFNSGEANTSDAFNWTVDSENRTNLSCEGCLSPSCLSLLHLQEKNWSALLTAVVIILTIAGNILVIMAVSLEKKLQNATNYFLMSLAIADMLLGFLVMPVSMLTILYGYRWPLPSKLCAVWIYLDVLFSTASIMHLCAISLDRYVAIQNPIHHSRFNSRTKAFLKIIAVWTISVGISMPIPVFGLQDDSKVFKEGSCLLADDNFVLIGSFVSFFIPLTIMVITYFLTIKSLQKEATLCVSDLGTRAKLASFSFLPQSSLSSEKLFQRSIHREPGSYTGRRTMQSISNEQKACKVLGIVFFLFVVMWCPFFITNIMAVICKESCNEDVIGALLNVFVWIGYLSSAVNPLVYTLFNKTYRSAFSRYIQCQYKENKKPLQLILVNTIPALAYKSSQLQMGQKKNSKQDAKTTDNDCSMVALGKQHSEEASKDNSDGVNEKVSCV
Protocol: The 5-HT2A receptor affinity of compounds in the Examples was determined in competition experiments, where the ability of each compound in serial dilution to displace ^3H-labeled lysergic diethyl amide (LSD), bound to membranes prepared from a transfected CHO cell line stably expressing the human 5-HT2A receptor protein, was measured after rapid filtration through glass fiber filters. Non-specific binding was defined using mianserin (5 μM). The 5-HT2A receptor affinity values are expressed as Ki values.

Row | SMILES | Ki [nM]
15 | O=c1c(N2CCN(Cc3ccccc3)CC2)nccn1CCOc1cc(F)c(F)cc1F [Example 63, 3-(4-Benzylpiperazin-1-yl)-1-[2-(2,4,5-trifluorophenoxy)ethyl]pyrazin-2(1H)-one] | 1.4
16 | O=C(c1ccccc1)c1cccc(OCCn2ccnc(N3CCNCC3)c2=O)c1 [Example 24, 1-[2-(3-Benzoylphenoxy)ethyl]-3-(1-piperazinyl)-2(1H)-pyrazinone] | 3.6
17 | O=c1c(N2CCNCC2)nccn1CCOc1cccc([N+](=O)[O-])c1 [Example 23, 1-[2-(3-Nitrophenoxy)ethyl]-3-(1-piperazinyl)-2(1H)-pyrazinone] | 13
18 | O=c1c(N2CCNCC2)nccn1CCOc1ccc(C(F)(F)F)cc1 [Example 29, 1-[2-(4-Trifluoromethylphenoxy)ethyl]-3-(1-piperazinyl)-2(1H)-pyrazinone] | 8
19 | O=c1c(N2CCNCC2)nccn1CCOc1ccc(Oc2ccccc2)cc1 [Example 31, 1-[2-{4-Phenoxy-(phenoxy)}ethyl]-3-(1-piperazinyl)-2(1H)-pyrazinone] | 4.4
20 | O=c1ccc2ccc(OCCn3ccnc(N4CCNCC4)c3=O)cc2o1 [Example 2, 1-{2-[(2-Oxo-2H-chromen-7-yl)oxy]ethyl}-3-(1-piperazinyl)-2(1H)-pyrazinone] | 152
21 | CCCCOc1cccc(OCCn2ccnc(N3CCNCC3)c2=O)c1 [Example 11, 1-[2-(3-n-Butyloxyphenoxy)ethyl]-3-(1-piperazinyl)-2(1H)-pyrazinone] | 2.5
22 | O=c1c(N2CCNCC2)nccn1CCOc1cc(F)c(F)cc1F [Example 3, 3-(1-Piperazinyl)-1-[2-(2,4,5-trifluorophenoxy)ethyl]-2(1H)-pyrazinone] | 2.2
23 | O=c1c(N2CCNCC2)nccn1CCOc1ccc(F)c(F)c1F [Example 13, 3-(1-Piperazinyl)-1-[2-(2,3,4-trifluorophenoxy)ethyl]-2(1H)-pyrazinone] | 29
24 | O=c1c(N2CCN(CCc3ccccc3)CC2)nccn1CCOc1cc(F)c(F)cc1F [Example 62, 3-[4-(2-Phenylethyl)piperazin-1-yl-]1-[2-(2,4,5-trifluorophenoxy)ethyl]pyrazin-2(1H)-one] | 0.15
